Source: ChEMBL document CHEMBL5108027, “An unanticipated discovery of novel naphthalimidopropanediols as potential broad-spectrum antibacterial members” (Eur J Med Chem, 2022)
≈ marks a conversion by molar mass, not a printed value.

Experiments:
Format in all cases: functional
Pseudomonas aeruginosa [1] = test: Antibacterial activity against Pseudomonas aeruginosa measured by Muller-Hinton broth based microdilution assay
Staphylococcus aureus [2] = test: Antibacterial activity against Staphylococcus aureus ATCC 29213 measured by Muller-Hinton broth based microdilution assay
Escherichia coli [3] = test: Antibacterial activity against Escherichia coli measured by Muller-Hinton broth based microdilution assay
Acinetobacter baumannii = test: Antibacterial activity against Acinetobacter baumannii measured by Muller-Hinton broth based microdilution assay
Klebsiella pneumoniae = test: Antibacterial activity against Klebsiella pneumoniae measured by Muller-Hinton broth based microdilution assay
Staphylococcus aureus [4] = test: Antibacterial activity against Staphylococcus aureus measured by Muller-Hinton broth based microdilution assay
Pseudomonas aeruginosa [5] = test: Antibacterial activity against Pseudomonas aeruginosa ATCC 27853 measured by Muller-Hinton broth based microdilution assay
Escherichia coli [6] = test: Antibacterial activity against Escherichia coli ATCC 25922 measured by Muller-Hinton broth based microdilution assay
Staphylococcus aureus [7] = test: Antibacterial activity against methicillin-resistant Staphylococcus aureus N315 measured by Muller-Hinton broth based microdilution assay
Staphylococcus aureus [8] = test: Antibacterial activity against Staphylococcus aureus ATCC 25923 measured by Muller-Hinton broth based microdilution assay
Enterococcus faecalis = test: Antibacterial activity against Enterococcus faecalis measured by Muller-Hinton broth based microdilution assay

SMILES	MIC (Pseudomonas aeruginosa [1])	MIC (Staphylococcus aureus [2])	MIC (Escherichia coli [3])	MIC (Acinetobacter baumannii)	MIC (Klebsiella pneumoniae)	MIC (Staphylococcus aureus [4])	MIC (Pseudomonas aeruginosa [5])	MIC (Escherichia coli [6])	MIC (Staphylococcus aureus [7])	MIC (Staphylococcus aureus [8])	MIC (Enterococcus faecalis)
O=C1c2cccc3c(N/N=C/c4ccc(F)cc4F)ccc(c23)C(=O)N1C(CO)CO	256 µg/mL (≈ 602 µM)	16 µg/mL (≈ 37.6 µM)	256 µg/mL (≈ 602 µM)	256 µg/mL (≈ 602 µM)	128 µg/mL (≈ 301 µM)	256 µg/mL (≈ 602 µM)	256 µg/mL (≈ 602 µM)	256 µg/mL (≈ 602 µM)	128 µg/mL (≈ 301 µM)	32 µg/mL (≈ 75.2 µM)	128 µg/mL (≈ 301 µM)
O=C1c2cccc3c(N/N=C/c4ccncc4)ccc(c23)C(=O)N1C(CO)CO	2 µg/mL (≈ 5.12 µM)	128 µg/mL (≈ 328 µM)	32 µg/mL (≈ 82 µM)	64 µg/mL (≈ 164 µM)	64 µg/mL (≈ 164 µM)	4 µg/mL (≈ 10.2 µM)	1 µg/mL (≈ 2.56 µM)	64 µg/mL (≈ 164 µM)	64 µg/mL (≈ 164 µM)	64 µg/mL (≈ 164 µM)	64 µg/mL (≈ 164 µM)
O=C1c2cccc3c(N/N=C/c4ncc[nH]4)ccc(c23)C(=O)N1C(CO)CO	8 µg/mL (≈ 21.1 µM)	128 µg/mL (≈ 337 µM)	16 µg/mL (≈ 42.2 µM)	64 µg/mL (≈ 169 µM)	64 µg/mL (≈ 169 µM)	32 µg/mL (≈ 84.3 µM)	4 µg/mL (≈ 10.5 µM)	64 µg/mL (≈ 169 µM)	64 µg/mL (≈ 169 µM)	64 µg/mL (≈ 169 µM)	64 µg/mL (≈ 169 µM)
O=C1c2cccc3c(N/N=C/c4ccc(O)c(Br)c4)ccc(c23)C(=O)N1C(CO)CO	64 µg/mL (≈ 132 µM)	64 µg/mL (≈ 132 µM)	64 µg/mL (≈ 132 µM)	64 µg/mL (≈ 132 µM)	16 µg/mL (≈ 33 µM)	16 µg/mL (≈ 33 µM)	16 µg/mL (≈ 33 µM)	32 µg/mL (≈ 66.1 µM)	8 µg/mL (≈ 16.5 µM)	64 µg/mL (≈ 132 µM)	4 µg/mL (≈ 8.26 µM)
O=C1c2cccc3c(N/N=C/c4cccc(F)c4)ccc(c23)C(=O)N1C(CO)CO	32 µg/mL (≈ 78.5 µM)	64 µg/mL (≈ 157 µM)	64 µg/mL (≈ 157 µM)	64 µg/mL (≈ 157 µM)	2 µg/mL (≈ 4.91 µM)	16 µg/mL (≈ 39.3 µM)	32 µg/mL (≈ 78.5 µM)	64 µg/mL (≈ 157 µM)	32 µg/mL (≈ 78.5 µM)	64 µg/mL (≈ 157 µM)	32 µg/mL (≈ 78.5 µM)
O=C1c2cccc3c(N/N=C/c4ccc(Cl)cc4)ccc(c23)C(=O)N1C(CO)CO	32 µg/mL (≈ 75.5 µM)	128 µg/mL (≈ 302 µM)	64 µg/mL (≈ 151 µM)	128 µg/mL (≈ 302 µM)	16 µg/mL (≈ 37.7 µM)	32 µg/mL (≈ 75.5 µM)	32 µg/mL (≈ 75.5 µM)	64 µg/mL (≈ 151 µM)	16 µg/mL (≈ 37.7 µM)	64 µg/mL (≈ 151 µM)	32 µg/mL (≈ 75.5 µM)
CCCCCCCCn1cc(/C=N/Nc2ccc3c4c(cccc24)C(=O)N(C(CO)CO)C3=O)c2ccccc21	128 µg/mL (≈ 237 µM)	64 µg/mL (≈ 118 µM)	32 µg/mL (≈ 59.2 µM)	64 µg/mL (≈ 118 µM)	16 µg/mL (≈ 29.6 µM)	32 µg/mL (≈ 59.2 µM)	64 µg/mL (≈ 118 µM)	128 µg/mL (≈ 237 µM)	64 µg/mL (≈ 118 µM)	16 µg/mL (≈ 29.6 µM)	64 µg/mL (≈ 118 µM)
CCCCCCCCCCCCCCCCn1cc(/C=N/Nc2ccc3c4c(cccc24)C(=O)N(C(CO)CO)C3=O)c2ccccc21	64 µg/mL (≈ 98 µM)	64 µg/mL (≈ 98 µM)	32 µg/mL (≈ 49 µM)	64 µg/mL (≈ 98 µM)	32 µg/mL (≈ 49 µM)	8 µg/mL (≈ 12.3 µM)	32 µg/mL (≈ 49 µM)	64 µg/mL (≈ 98 µM)	64 µg/mL (≈ 98 µM)	32 µg/mL (≈ 49 µM)	64 µg/mL (≈ 98 µM)
O=C1c2cccc3c(N/N=C/c4ccc(O)cc4O)ccc(c23)C(=O)N1C(CO)CO	64 µg/mL (≈ 152 µM)	64 µg/mL (≈ 152 µM)	64 µg/mL (≈ 152 µM)	64 µg/mL (≈ 152 µM)	4 µg/mL (≈ 9.49 µM)	16 µg/mL (≈ 38 µM)	32 µg/mL (≈ 75.9 µM)	32 µg/mL (≈ 75.9 µM)	16 µg/mL (≈ 38 µM)	16 µg/mL (≈ 38 µM)	16 µg/mL (≈ 38 µM)
O=C(Cn1cc(/C=N/Nc2ccc3c4c(cccc24)C(=O)N(C(CO)CO)C3=O)c2ccccc21)N1CCOCC1	256 µg/mL (≈ 461 µM)	128 µg/mL (≈ 230 µM)	256 µg/mL (≈ 461 µM)	128 µg/mL (≈ 230 µM)	256 µg/mL (≈ 461 µM)	128 µg/mL (≈ 230 µM)	128 µg/mL (≈ 230 µM)	256 µg/mL (≈ 461 µM)	256 µg/mL (≈ 461 µM)	64 µg/mL (≈ 115 µM)	128 µg/mL (≈ 230 µM)
O=C1c2cccc3c(N/N=C/c4ccc(O)c(Cl)c4)ccc(c23)C(=O)N1C(CO)CO	8 µg/mL (≈ 18.2 µM)	64 µg/mL (≈ 146 µM)	16 µg/mL (≈ 36.4 µM)	64 µg/mL (≈ 146 µM)	64 µg/mL (≈ 146 µM)	64 µg/mL (≈ 146 µM)	32 µg/mL (≈ 72.8 µM)	64 µg/mL (≈ 146 µM)	64 µg/mL (≈ 146 µM)	32 µg/mL (≈ 72.8 µM)	64 µg/mL (≈ 146 µM)
O=C1c2cccc3c(N/N=C/c4ccccc4)ccc(c23)C(=O)N1C(CO)CO	1 µg/mL (≈ 2.57 µM)	32 µg/mL (≈ 82.2 µM)	128 µg/mL (≈ 329 µM)	64 µg/mL (≈ 164 µM)	16 µg/mL (≈ 41.1 µM)	64 µg/mL (≈ 164 µM)	32 µg/mL (≈ 82.2 µM)	64 µg/mL (≈ 164 µM)	64 µg/mL (≈ 164 µM)	2 µg/mL (≈ 5.14 µM)	64 µg/mL (≈ 164 µM)
O=C1c2cccc3c(N/N=C/c4ccc(C(F)(F)F)cc4)ccc(c23)C(=O)N1C(CO)CO	16 µg/mL (≈ 35 µM)	2 µg/mL (≈ 4.37 µM)	32 µg/mL (≈ 70 µM)	64 µg/mL (≈ 140 µM)	4 µg/mL (≈ 8.74 µM)	8 µg/mL (≈ 17.5 µM)	8 µg/mL (≈ 17.5 µM)	32 µg/mL (≈ 70 µM)	64 µg/mL (≈ 140 µM)	32 µg/mL (≈ 70 µM)	4 µg/mL (≈ 8.74 µM)
O=C1c2cccc3c(N/N=C/c4ccc(O)c(O)c4O)ccc(c23)C(=O)N1C(CO)CO	64 µg/mL (≈ 146 µM)	64 µg/mL (≈ 146 µM)	64 µg/mL (≈ 146 µM)	16 µg/mL (≈ 36.6 µM)	2 µg/mL (≈ 4.57 µM)	4 µg/mL (≈ 9.14 µM)	4 µg/mL (≈ 9.14 µM)	16 µg/mL (≈ 36.6 µM)	16 µg/mL (≈ 36.6 µM)	32 µg/mL (≈ 73.2 µM)	8 µg/mL (≈ 18.3 µM)
O=C1c2cccc3c(N/N=C/c4ccc(Cl)cc4Cl)ccc(c23)C(=O)N1C(CO)CO	128 µg/mL (≈ 279 µM)	8 µg/mL (≈ 17.5 µM)	256 µg/mL (≈ 559 µM)	128 µg/mL (≈ 279 µM)	128 µg/mL (≈ 279 µM)	32 µg/mL (≈ 69.8 µM)	128 µg/mL (≈ 279 µM)	256 µg/mL (≈ 559 µM)	32 µg/mL (≈ 69.8 µM)	8 µg/mL (≈ 17.5 µM)	64 µg/mL (≈ 140 µM)
O=C1c2cccc3c(N/N=C/c4ccccc4O)ccc(c23)C(=O)N1C(CO)CO	64 µg/mL (≈ 158 µM)	16 µg/mL (≈ 39.5 µM)	32 µg/mL (≈ 78.9 µM)	64 µg/mL (≈ 158 µM)	4 µg/mL (≈ 9.87 µM)	16 µg/mL (≈ 39.5 µM)	64 µg/mL (≈ 158 µM)	32 µg/mL (≈ 78.9 µM)	2 µg/mL (≈ 4.93 µM)	32 µg/mL (≈ 78.9 µM)	16 µg/mL (≈ 39.5 µM)
O=C1c2cccc3c(N/N=C/c4cccs4)ccc(c23)C(=O)N1C(CO)CO	64 µg/mL (≈ 162 µM)	8 µg/mL (≈ 20.2 µM)	32 µg/mL (≈ 80.9 µM)	64 µg/mL (≈ 162 µM)	4 µg/mL (≈ 10.1 µM)	64 µg/mL (≈ 162 µM)	32 µg/mL (≈ 80.9 µM)	32 µg/mL (≈ 80.9 µM)	4 µg/mL (≈ 10.1 µM)	64 µg/mL (≈ 162 µM)	16 µg/mL (≈ 40.5 µM)
CN[C@H](CC(C)C)C(=O)N[C@H]1C(=O)N[C@@H](CC(N)=O)C(=O)N[C@H]2C(=O)N[C@H]3C(=O)N[C@H](C(=O)N[C@H](C(=O)O)c4cc(O)cc(O)c4-c4cc3ccc4O)[C@H](O)c3ccc(c(Cl)c3)Oc3cc2cc(c3O[C@@H]2O[C@H](CO)[C@@H](O)[C@H](O)[C@H]2O[C@H]2C[C@](C)(N)[C@H](O)[C@H](C)O2)Oc2ccc(cc2Cl)[C@H]1O [VANCOMYCIN]	–	–	–	–	–	–	–	–	–	–	1 µg/mL (≈ 0.69 µM)
C#CCn1cc(/C=N/Nc2ccc3c4c(cccc24)C(=O)N(C(CO)CO)C3=O)c2ccccc21	32 µg/mL (≈ 68.6 µM)	1 µg/mL (≈ 2.14 µM)	64 µg/mL (≈ 137 µM)	16 µg/mL (≈ 34.3 µM)	4 µg/mL (≈ 8.57 µM)	0.5 µg/mL (≈ 1.07 µM)	4 µg/mL (≈ 8.57 µM)	16 µg/mL (≈ 34.3 µM)	8 µg/mL (≈ 17.1 µM)	8 µg/mL (≈ 17.1 µM)	16 µg/mL (≈ 34.3 µM)
O=C(O)c1cn(C2CC2)c2cc(N3CCNCC3)c(F)cc2c1=O [CIPROFLOXACIN]	–	8 µg/mL (≈ 24.1 µM)	–	2 µg/mL (≈ 6.04 µM)	2 µg/mL (≈ 6.04 µM)	2 µg/mL (≈ 6.04 µM)	–	–	4 µg/mL (≈ 12.1 µM)	0.5 µg/mL (≈ 1.51 µM)	2 µg/mL (≈ 6.04 µM)
